Test [1] addresses T1, OBP::GQ20::SP-DS3, engineered from OBP-I (Sus scrofa, UniProt P81245).
T1 construct: fusion of OBP-I with a linker of 20 glycine-glutamine repeats (GQ20) and the anchor peptide SP-DS3 ([…]); His-tag at N-terminal
T1 sequence (P81245 1-157): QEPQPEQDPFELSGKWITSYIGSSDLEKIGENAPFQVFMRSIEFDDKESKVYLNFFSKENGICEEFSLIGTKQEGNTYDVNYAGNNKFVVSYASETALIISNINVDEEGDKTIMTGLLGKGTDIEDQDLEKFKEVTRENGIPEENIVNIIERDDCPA
Kind of test: direct fluorescence titration with 1-AMA (ex […] nm, em […] nm), […] °C; Kd […] at […] °C. Type of test: binding.

In test [2] the target is T2, truncated OBP (tOBP), engineered from OBP-I (Sus scrofa, UniProt P81245, F44A/F66A).
T2 construct: OBP-I with deletion of the first 16 residues of the N-terminal and F44A and F66A; His-tag at N-terminal
T2 sequence (P81245 17-157 F44A/F66A): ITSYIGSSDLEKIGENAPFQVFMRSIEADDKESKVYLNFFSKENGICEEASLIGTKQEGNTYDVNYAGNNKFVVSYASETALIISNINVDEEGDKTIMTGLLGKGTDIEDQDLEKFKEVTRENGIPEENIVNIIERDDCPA
The test is described as above. The test is classed as binding.

As for `Nc1cccc2cc3ccccc3cc12` [1-AMA, 1-aminoanthracene], the Kd is 580 nM in test [1] and 450 nM in test [2].

A word on the Kd: it is the equilibrium constant for the complex coming apart. The low end stands for tighter binding, the high end for weaker binding.

These data come from PMC6172251, “Two Engineered OBPs with opposite temperature-dependent affinities towards 1-aminoanthracene” (Scientific Reports, 2018).
